Results from patent US4361570A (Istituto Luso Farmaco D'Italia S.p.A., priority 1980, dated 1982).
Read-outs that look alike come from different tables or passages of the source.

Columns and labels:
lacticacidaemia [1] = conditions: for lactate level: control animals 5.1±0.59 mM/l
Method: The resulting lactate levels are 2.9±0.8 mM/l with modality "A" and 1.37±0.01 mM/l with modality "B", respectively.
The control animals show a lacticacidaemia level of 5.1±0.59 mM/l.

lacticacidaemia [2] = conditions: for lacticacidaemia, basal / lacticacidaemia, after 15 minutes / lacticacidaemia, after 10 minutes / lacticacidaemia, immediately after stress: 2300 mg in 250 ml venous infusion
Method: All the patients are being treated with insulin and are in a metabolic compensation.
The trials are performed on double-blind conditions. Each patient is subjected to an isometric stress test at 50% of its maximum ability for one minute.
The samples for measuring the lacticacidaemia are taken from the same arm performing the muscular stress.

[3] = Rat
[4] = Mouse
[5] = Rabbit, i.v.
[6] = 400 mg/kg/os, rats, six months
[7] = rats
[8] = 920 mg/kg/i.m., dog
[9] = pregnant rabbit
[10] = pregnant rat
[11] = test system: homogenized liver and brain; conditions: in vitro, Warburg apparatus, French Pat. No. 6453 M; cited from earlier work
hyperlacticacidaemia = assay: Lacticacidaemia in cyrrhotic patients having hyperlacticacidaemia (double blind); conditions: venous 2300 mg in 250 ml, 25 cyrrhotic patients
[12] = test system: maximal aerobic capacity; blood lactate; assay: Maximal aerobic capacity and blood lactate at work loads in trained non-athletic individuals
lacticacidaemia [13] = conditions: known effect of metformin; cited from earlier work

SMILES: Cc1ncc(CO)c(CO)c1O.O=C(O)CCC(=O)C(=O)O [PAK]
- decrease of lacticacidaemia (lacticacidaemia [1]; modality "A" and modality "B", with metformin): notable decrease of lacticacidaemia
- lactate level (lacticacidaemia [1]; modality "A": PAK 25 mg/h venous infusion contemporaneously with metformin (300 mg/i.d.)): 2.9±0.8 mM/l
- lactate level (lacticacidaemia [1]; modality "B": PAK 25 mg/h venous infusion three hours after metformin (300 mg/i.d.)): 1.37±0.01 mM/l
- duration of effect (lacticacidaemia [2]; analysis of the variance): protracted in time
- reduction of lacticacidaemia after stress (lacticacidaemia [2]; analysis of the variance): faster with PAK
- increase of lacticacidaemia by stress with respect to physiological solution (lacticacidaemia [2]; analysis of the variance, p<0.01): lower with respect to physiological solution
- lacticacidaemia, basal (lacticacidaemia [2]; sequence (a) physiological solution/PAK, physiological solution 0.88 ± 0.19): 0.94 ± 0.20
- lacticacidaemia, after 15 minutes (lacticacidaemia [2]; sequence (a) physiological solution/PAK, physiological solution 1.54 ± 0.30): 1.18 ± 0.30
- lacticacidaemia, after 10 minutes (lacticacidaemia [2]; sequence (a) physiological solution/PAK, physiological solution 1.73 ± 0.35): 1.60 ± 0.30
- lacticacidaemia, immediately after stress (lacticacidaemia [2]; sequence (a) physiological solution/PAK, physiological solution 3.12 ± 0.46): 2.62 ± 0.38
- lacticacidaemia, basal (lacticacidaemia [2]; sequence (b) PAK/physiological solution, physiological solution 0.93 ± 0.19): 0.88 ± 0.16
- lacticacidaemia, after 15 minutes (lacticacidaemia [2]; sequence (b) PAK/physiological solution, physiological solution 1.25 ± 0.40): 1.11 ± 0.29
- lacticacidaemia, after 10 minutes (lacticacidaemia [2]; sequence (b) PAK/physiological solution, physiological solution 1.43 ± 0.44): 1.30 ± 0.33
- lacticacidaemia, immediately after stress (lacticacidaemia [2]; sequence (b) PAK/physiological solution, physiological solution 2.08 ± 0.49): 2.03 ± 0.47
- LD50 ([3]; i.m.): 2329 mg/kg
- LD50 ([3]; i.p.): 1704 mg/kg
- LD50 ([3]; i.v.): 588 mg/kg
- LD50 ([3]; os): 4800 mg/kg
- LD50 ([4]; i.m.): 2472 mg/kg
- LD50 ([4]; i.p.): 1590 mg/kg
- LD50 ([4]; i.v.): 496 mg/kg
- LD50 ([4]; os): 5600 mg/kg
- LD50 [5]: 1050 mg/kg
- Chronic toxicity [6]: does not cause any collateral nor toxic effect in the various organs
- Systemic tolerability ([7]; 46 mg/kg/i.v.): well tolerated
- Systemic tolerability ([7]; 460 mg/kg/i.m.): well tolerated
- Systemic tolerability [8]: well tolerated
- Activity on gestation ([9]; 46 mg/kg/i.m.): does not cause any noxious effect in the pregnant female, on the gestation and on the embryo-fetal development
- Activity on gestation ([9]; oral 1300 mg/kg): does not cause any noxious effect in the pregnant female, on the gestation and on the embryo-fetal development
- Activity on gestation ([10]; 46 mg/kg/i.m.): does not cause any noxious effect in the pregnant female, on the gestation and on the embryo-fetal development
- Activity on gestation ([10]; oral 1300 mg/kg): does not cause any noxious effect in the pregnant female, on the gestation and on the embryo-fetal development
- decrease in the formation of blood lactic acid (blood lactic acid; 2 g/100 kg of weight/day for 15 days, 5 trotters, trot): significant decrease
- basal lacticacidaemia after treatment (blood lactic acid; 2 g/100 kg/day for 15 days, before treatment 6.04 mg/100 ml): 3.30 mg/100 ml
- lacticacidaemia immediately after the stress, after treatment (blood lactic acid; 2 g/100 kg/day for 15 days, before treatment 29.41 mg/100 ml): 15.94 mg/100 ml
- oxygen consumption vs α-ketoglutaric acid or pyridoxine alone [11]: markedly higher
- further increase of hyperlacticacidaemia (hyperlacticacidaemia): prevented its further increase
- reduction of hyperlacticacidaemia vs basal values and controls (hyperlacticacidaemia; p<0.01): statistically significant (p<0.01) reduction
- effect on half time (t 1/2) of La disappearance from blood during recovery ([12]; 30 mg/kg): unaffected
- increase of maximal aerobic capacity (VO2 max) ([12]; 30 mg/kg of body weight, p<0.005): 6%
- kinetics of the VO2 on-and-off responses ([12]; 30 mg/kg, onset and offset of a rectangular work load): not affected
- ΔLab, peak blood lactate concentration vs control group ([12]; 30 mg/kg, supermaximal running work load lasting 60 seconds, p<0.05): -1.1 mmol·1^-1
- ΔLab, peak blood lactate concentration vs control group ([12]; 30 mg/kg, supermaximal running work load lasting 132±4 seconds, p<0.01): < 2.7 mmol·1^-1

SMILES: CN(C)C(=N)N=C(N)N [metformin]
- lacticacidosis in rat (lacticacidaemia [13]): causes lacticacidosis
